Where two headings read alike, the source gives them in different places.
Legend:
p38a/MK2 = p38a/MK2 (Homo sapiens (Human), UniProt P49137+Q16539); assay: p38a/MK2 biochemical assay: activation of MK2 by p38, FITC-HSP27 peptide phosphorylation (IMAP FP); conditions: 10-point 1:3 dilution, 60 pM active p38a, 1 nM inactive MK2, 10 μM ATP, 2 h incubation
p38a/PRAK = p38a/PRAK (Homo sapiens (Human), UniProt Q16539); assay: p38a/PRAK biochemical assay: activation of PRAK by p38, FITC-HSP27 peptide phosphorylation (IMAP FP); conditions: 10-point 1:3 dilution, top dose 300 μM, 60 pM active p38a, 1 nM inactive PRAK, 10 μM ATP, 2 h incubation; for IC50: read-out: p38a/PRAK Enzyme pIC50 (converted)
Sequence of p38a/PRAK (Q16539 whole entry): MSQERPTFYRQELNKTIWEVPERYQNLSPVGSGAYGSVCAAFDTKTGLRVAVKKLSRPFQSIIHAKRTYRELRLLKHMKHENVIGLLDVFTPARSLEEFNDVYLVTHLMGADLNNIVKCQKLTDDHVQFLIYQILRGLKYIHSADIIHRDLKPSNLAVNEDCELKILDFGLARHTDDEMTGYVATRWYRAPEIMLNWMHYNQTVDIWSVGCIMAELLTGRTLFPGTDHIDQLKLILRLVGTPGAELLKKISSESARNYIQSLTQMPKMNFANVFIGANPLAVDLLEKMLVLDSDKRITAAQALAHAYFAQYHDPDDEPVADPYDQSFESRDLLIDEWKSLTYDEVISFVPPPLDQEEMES
Summary of the method: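 GST-tagged MK2 (F46–H400) and PRAK (M1–Q471), expressed in E. coli, activated by p38 and phosphorylate FITC-HSP27 peptide over 2 h with compound; readout by IMAP fluorescence polarisation (ex 485/em 528 nm). Ten-point 1:3 dilutions, top dose 1 μM for MK2 and 300 μM for PRAK. IC50 after vehicle normalisation; selectivity = IC50(PRAK)/IC50(MK2).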

[1] = top dose 1 μM, read-out: p38a/MK2 (1 μM) Enzyme pIC50 (converted)

Sequence of p38a/MK2 (P49137 46-400): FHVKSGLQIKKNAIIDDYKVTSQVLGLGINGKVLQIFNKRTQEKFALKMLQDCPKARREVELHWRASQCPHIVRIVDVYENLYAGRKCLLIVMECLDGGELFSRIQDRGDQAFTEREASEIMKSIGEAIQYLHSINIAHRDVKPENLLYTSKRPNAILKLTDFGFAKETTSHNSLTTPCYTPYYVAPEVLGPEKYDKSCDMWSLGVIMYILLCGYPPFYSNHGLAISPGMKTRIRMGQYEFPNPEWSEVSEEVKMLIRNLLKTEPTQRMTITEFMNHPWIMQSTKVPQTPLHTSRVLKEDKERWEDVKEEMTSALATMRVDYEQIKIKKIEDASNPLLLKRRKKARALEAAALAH
Sequence of p38a/MK2 (Q16539 whole entry): as the sequence (Q16539 whole entry) above

| Structure (SMILES) | IC50 (p38a/MK2; [1]) [nM] | IC50 (p38a/PRAK) [nM] | p38a/MK2 (10 μM) Enzyme pIC50 (p38a/MK2; top dose 10 μM) | p38a/PRAK Enzyme pIC50 (p38a/PRAK) | IC50 (p38a/MK2; top dose 10 μM, read-out: p38a/MK2 (10 μM) Enzyme pIC50 (converted)) [nM] |
| --- | --- | --- | --- | --- | --- |
| Cc1cnc(-c2ccnc(C(O)C3CC3)n2)cc1-n1c(C)cc(OCc2ncc(F)cc2F)c(Cl)c1=O (single isomer, unassigned) [Example 35B, rel-3-chloro-2′-{2-[cyclopropyl(hydroxy)methyl]pyrimidin-4-yl}-4-[(3,5-difluoropyridin-2-yl)methoxy]-5′,6-dimethyl-[1,4′-bipyridin]-2-one] | 15.8 | 5010 | – | – | – |
| Cc1cnc(-c2ccc3c(n2)[C@@H](O)CC3)cc1-n1c(C)cc(OCc2ncc(F)cc2F)c(Cl)c1=O (single isomer, unassigned) [Example 18C] | – | – | <5.0 | <3.5 | – |
| Cc1cnc(-n2ccc(C(C)(C)O)n2)c(C)c1-n1c(C)cc(OCc2ncc(F)cc2F)c(Cl)c1=O (single isomer, unassigned) [Example 50B, rel-3-chloro-4-[(3,5-difluoropyridin-2-yl)methoxy]-2′-[3-(2-hydroxypropan-2-yl)pyrazol-1-yl]-3′,5′,6-trimethyl-[1,4′-bipyridin]-2-one] | > 1000 | > 316000 | – | – | – |
| Cc1cnc(-n2ccc(C(C)(C)O)n2)c(F)c1-n1c(C)cc(OCc2ncc(F)cc2F)c(Cl)c1=O (single isomer, unassigned) [Example 54A, rel-3-chloro-4-((3,5-difluoropyridin-2-yl)methoxy)-3′-fluoro-2′-(3-(2-hydroxypropan-2-yl)-1H-pyrazol-1-yl)-5′,6-dimethyl-2H-[1,4′-bipyridin]-2-one] | > 1000 | > 316000 | – | – | – |
| Cc1cnc(-c2cccc(C(C)(C)O)[n+]2[O-])c(F)c1-n1c(C)cc(OCc2ncc(F)cc2F)c(Cl)c1=O (single isomer, unassigned) [Example 62B, rel-3-chloro-4-((3,5-difluoropyridin-2-yl)methoxy)-3′-fluoro-6″-(2-hydroxypropan-2-yl)-5′,6-dimethyl-2-oxo-2H-[1,4′:2′,2″-terpyridine] 1″-oxide] | > 100 | > 316000 | – | – | – |
| Cc1cnc(-c2ccnc(C(C)(C)O)n2)c(F)c1-n1c(C)cc(OCc2ncc(F)cc2F)c(Cl)c1=O (single isomer, unassigned) [Example 53B, rel-3-chloro-4-[(3,5-difluoropyridin-2-yl)methoxy]-3′-fluoro-2′-[2-(2-hydroxypropan-2-yl)pyrimidin-4-yl]-5′,6-dimethyl-[1,4′-bipyridin]-2-one] | 0.126 | 794 | – | – | – |
| [2H]C([2H])(Oc1cc(C)n(-c2c(C)cnc(-c3ccnc(CC4(O)CC4)n3)c2F)c(=O)c1Cl)c1ncc(F)cc1F (single isomer, unassigned) [Example 61B, rel-3-chloro-4-((3,5-difluoropyridin-2-yl)methoxy-d2)-3′-fluoro-2′-(2-((1-hydroxycyclopropyl)methyl)pyrimidin-4-yl)-5′,6-dimethyl-2H-[1,4′-bipyridin]-2-one] | 3.16 | 631 | – | – | – |
| Cc1cnc(-c2cncc(C(C)(C)O)n2)cc1-n1c(C)cc(OCc2ncc(F)cc2F)c(Cl)c1=O (single isomer, unassigned) [Example 51A, rel-3-chloro-4-[(3,5-difluoropyridin-2-yl)methoxy]-2′-[6-(2-hydroxypropan-2-yl)pyrazin-2-yl]-5′,6-dimethyl-[1,4′-bipyridin]-2-one] | 79.4 | 5010 | – | – | – |
| Cc1cnc(-c2ccnc(C3(O)CCC3)n2)cc1-n1c(C)cc(OCc2ncc(F)cc2F)c(Cl)c1=O (single isomer, unassigned) [Example 41A, rel-3-chloro-4-[(3,5-difluoropyridin-2-yl)methoxy]-2′-[2-(1-hydroxycyclobutyl)pyrimidin-4-yl]-5′,6-dimethyl-[1,4′-bipyridin]-2-one] | 5.01 | 3160 | – | – | – |
| Cc1cnc(-c2cccc(C(C)(C)O)n2)c(F)c1-n1c(C)cc(OCc2ncc(F)cc2F)c(Cl)c1=O (single isomer, unassigned) [Example 63B, rel-3-chloro-4-[(3,5-difluoropyridin-2-yl)methoxy]-1-[3-fluoro-6′-(2-hydroxypropan-2-yl)-5-methyl-[2,2′-bipyridin]-4-yl]-6-methylpyridin-2-one] | 0.316 | 316 | – | – | – |
| Cc1cnc(-c2ccnc(C(C)(C)C(F)F)n2)cc1-n1c(C)cc(OCc2ncc(F)cc2F)c(Cl)c1=O (single isomer, unassigned) [Example 5A, rel-3-chloro-2′-[2-(1,1-difluoro-2-methylpropan-2-yl)pyrimidin-4-yl]-4-[(3,5-difluoropyridin-2-yl)methoxy]-5′,6-dimethyl-[1,4′-bipyridin]-2-one] | – | 2510 | – | – | 6.31 |
| Cc1cnc(-n2ccc(CC(C)(C)O)n2)cc1-n1c(C)cc(OCc2ncc(F)cc2F)c(Cl)c1=O (single isomer, unassigned) [Example 46A, rel-3-chloro-4-[(3,5-difluoropyridin-2-yl)methoxy]-2′-[3-(2-hydroxy-2-methylpropyl)pyrazol-1-yl]-5′,6-dimethyl-[1,4′-bipyridin]-2-one] | 15.8 | 2510 | – | – | – |
| [2H]C([2H])(Oc1cc(C)n(-c2c(C)cnc(-c3ccnc(C(C)(C)CO)n3)c2F)c(=O)c1Cl)c1ncc(F)cc1F (single isomer, unassigned) [Example 59B, rel-3-chloro-4-((3,5-difluoropyridin-2-yl)methoxy-d2)-3′-fluoro-2′-(2-(1-hydroxy-2-methylpropan-2-yl)pyrimidin-4-yl)-5′,6-dimethyl-2H-[1,4′-bipyridin]-2-one] | 1 | 316 | – | – | – |
| [2H]C([2H])([2H])C(O)(c1nccc(-c2ncc(C)c(-n3c(C)cc(OCc4ncc(F)cc4F)c(Cl)c3=O)c2F)n1)C([2H])([2H])[2H] (single isomer, unassigned) [Example 66A, rel-3-chloro-4-((3,5-difluoropyridin-2-yl)methoxy)-3′-fluoro-2′-(2-(2-hydroxypropan-2-yl-1,1,1,3,3,3-d6)pyrimidin-4-yl)-5′,6-dimethyl-2H-[1,4′-bipyridin]-2-one] | > 100 | > 316000 | – | – | – |
| Cc1cnc(-c2ccnc(C3CC(O)C3)n2)cc1-n1c(C)cc(OCc2ncc(F)cc2F)c(Cl)c1=O (single isomer, unassigned) [Example 26A, rel-3-chloro-4-((3,5-difluoropyridin-2-yl)methoxy)-2′-(2-(3-hydroxycyclobutyl)pyrimidin-4-yl)-5′,6-dimethyl-2H-[1,4′-bipyridin]-2-one] | 12.6 | 2000 | – | – | – |
| Cc1cnc(-c2ccnc(C(C)(C)O)n2)c(C)c1-n1c(C)cc(OCc2ncc(F)cc2F)c(Cl)c1=O (single isomer, unassigned) [Example 49B, rel-3-chloro-4-((3,5-difluoropyridin-2-yl)methoxy)-2′-(2-(2-hydroxypropan-2-yl)pyrimidin-4-yl)-3′,5′,6-trimethyl-2H-[1,4′-bipyridin]-2-one] | > 1000 | > 316000 | – | – | – |
| [2H]C([2H])(Oc1cc(C)n(-c2c(C)cnc(-c3ccnc(C(C)(C)O)n3)c2F)c(=O)c1Cl)c1ncc(F)cc1F (single isomer, unassigned) [Example 57A, rel-3-chloro-4-[(3,5-difluoropyridin-2-yl)(2H2)methoxy]-3′-fluoro-2′-[2-(2-hydroxypropan-2-yl)pyrimidin-4-yl]-5′,6-dimethyl-[1,4′-bipyridin]-2-one] | 1.26 | 794 | – | – | – |
| Cc1cnc(-c2ccnc([C@@H](O)C3CC3)n2)cc1-n1c(C)cc(OCc2ncc(F)cc2F)c(Cl)c1=O (single isomer, unassigned) [Example 35D, rel-3-chloro-2′-{2-[cyclopropyl(hydroxy)methyl]pyrimidin-4-yl}-4-[(3,5-difluoropyridin-2-yl)methoxy]-5′,6-dimethyl-[1,4′-bipyridin]-2-one] | > 1000 | > 316000 | – | – | – |
| [2H]C([2H])(Oc1cc(C)n(-c2c(C)cnc(-c3ccnc(CC4(O)CC4)n3)c2F)c(=O)c1Cl)c1ncc(F)cc1F (single isomer, unassigned) [Example 61A, rel-3-chloro-4-((3,5-difluoropyridin-2-yl)methoxy-d2)-3′-fluoro-2′-(2-((1-hydroxycyclopropyl)methyl)pyrimidin-4-yl)-5′,6-dimethyl-2H-[1,4′-bipyridin]-2-one] | > 100 | 158000 | – | – | – |
| Cc1cc(OCc2ncc(F)cc2F)c(Cl)c(=O)n1-c1cc(-c2ccnc(C(C)(C)O)n2)ncc1C1CC1 (single isomer, unassigned) [Example 40B, rel-3-chloro-5′-cyclopropyl-4-[(3,5-difluoropyridin-2-yl)methoxy]-2′-[2-(2-hydroxypropan-2-yl)pyrimidin-4-yl]-6-methyl-[1,4′-bipyridin]-2-one] | > 1000 | > 316000 | – | – | – |
| Cc1cnc(COc2cc(C)n(-c3cc(-c4ccnc(C(C)(C)O)n4)ncc3C)c(=O)c2Cl)c(F)c1 (single isomer, unassigned) [Example 23A, rel-3-chloro-4-[(3-fluoro-5-methylpyridin-2-yl)methoxy]-2′-[2-(2-hydroxypropan-2-yl)pyrimidin-4-yl]-5′,6-dimethyl-[1,4′-bipyridin]-2-one] | 3.16 | 12600 | – | – | – |

— US11680056B2, “MK2 inhibitors and uses thereof” (Xinthera, Inc., priority 2021, dated 2023)
